Test results as given in patent publication US11865103B2, “Methods of treating disorders associated with glycosylation defective proteins” (CASE WESTERN RESERVE UNIVERSITY, priority 2016, dated 2024).

What was measured:
hCLRN1-YFP = assay: Localization of wild-type hCLRN1-YFP in neuromast hair cells of hCLRN1-YFP; clrn1^+/+ larvae treated with SERCA inhibitors; type: in vivo, zebrafish; settings: for Effect on pattern of localization of wild-type hCLRN1-YFP to the hair cell's bundle or plasma membrane: clrn1^+/+ larvae treated with TG or ART; for YFP intensity in the ROI in hair bundles (Mean±SEM): clrn1^+/+ larvae, 1 uM TG or 0.4 uM ART + 0.01% DMSO in E3 medium, E3 medium 62.82±2.15
Description: (§1) Thapsigargin (TG, 1 mg, Sigma-Aldrich, #T9033) stock in 100% DMSO was diluted in E3 medium to make the required final concentration of the drug. Five different concentrations that were earlier reported to induce ER stress and are non-toxic or lower lethal dose (LD50) in the zebrafish (0.1, 0.5, 1.0, 2.5, 5 μM concentrations) were used in this study. A total of 25 larvae per dosage and treatment duration from the genotypes hCLRN1^N48K-YFP; clrn1^+/+ and hCLRN1-YFP; clrn1^+/+, no older than 72 hours post fertilization (hpf) at the start of the experiment, were placed in a well of 12-well uncoated culture plate (BD Falcon, Canaan, CT). For ER stress induction, larvae were incubated in different dosage of TG from 1 hr to overnight at 28.5° C., followed by three times wash with E3 medium at 28.5° C. (Table 2) and hair cells from the hCLRN1^N48K-YFP; clrn1^+/+ and hCLRN1-YFP; clrn1^+/+ lines were examined for the respective protein distribution pattern in the hair cell bundle and the cell body. Live confocal images of ‘O’ and ‘ML1’ neuromasts per larvae were capture using Leica SP2 confocal microscope with 40× oil immersion objective. Unadjusted 1 micron middle section images of four hair bundles per ML1 neuromast of larvae from TG treated and untreated groups were analyzed using Image J software version v. 1.48 (FIG. 4). The hair bundle trafficked amount of hCLRN1^N48K protein corresponds to the change in YFP intensity in the hair bundle in the TG treated larvae. Quantification of YFP fluorescence intensity was carried out as described in the previous experiment for unconventional trafficking of hCLRN1^N48K-YFP by hGRASP55 cargos. […] Student's t-test was used to confirm the observed changes in the YFP intensity in the hair bundles of TG treatment compared to untreated hCLRN1^N48K-YFP; clrn1^+/+ larvae, is significant (FIG. 4J).
Arthemisinin (ART, 100 mg, Sigma-Aldrich, #361593) in 100% DMSO was diluted in E3 medium to make the final concentration. Five different concentrations within the range of reported ER stress inducing level in the zebrafish (0.1, 0.25, 0.4, 0.5, and 1 μM concentrations) were used in this study. A total of 25 larvae, no older than 72 hpf at the start of the experiment, were placed in a well of 12-well uncoated culture plate (BD 35 Falcon, Canaan, CT). […] From the captured confocal images of these neuromast hair cells, unadjusted 1 micron middle section images of 4 mature hair bundles from ML1 neuromast per larvae were considered for the YFP intensity quantification in unadjusted ROI covering the middle section of each hair bundles using the imageJ software. […] Quantification of YFP fluorescence intensity was carried out as described in the previous experiment for unconventional trafficking of hCLRN1^N48K-YFP by hGRASP55 cargos. […]

[1] = tested on: hCLRN1^N48K-YFP; clrn1^+/+ larvae; assay: Larval survival/lethality by TG or ART dose and treatment duration; type: in vivo, zebrafish; set-up: key: ‘S’ = Surviving; ‘L’ = Lethal
Description: as §1
Arthemisinin (ART, 100 mg, Sigma-Aldrich, #361593) in 100% DMSO was diluted in E3 medium to make the final concentration. Five different concentrations within the range of reported ER stress inducing level in the zebrafish (0.1, 0.25, 0.4, 0.5, and 1 μM concentrations) were used in this study. A total of 25 larvae, no older than 72 hpf at the start of the experiment, were placed in a well of 12-well uncoated culture plate (BD 35 Falcon, Canaan, CT). For ER stress induction, larvae were exposed in different dosage of ART for different duration at 28.5° C. (Table 3) and washed three times with E3 medium, and hair cells from the hCLRN1-YFP; clrn1^+/+ larvae and hCLRN1^N48K-YFP; clrn1^+/+ larvae were examined for the respective protein distribution pattern in the hair cell bundle and the cell body. Live confocal Z-stack images of otic ‘O’ and middle ‘ML’ neuromasts per larvae of hCLRN1-YFP; clrn1^+/+ larvae and hCLRN1^N48K-YFP; clrn1^+/+ genotypes from the untreated group in the E3 medium, 0.01% DMSO treatment group and ART treatment group were capture using Leica SP2 confocal microscope at 40× oil immersion objective. Hair cells from 2 otic (0) and 2 middle (ML) neuromasts per larvae were examined for the change in YFP intensity in the hair bundle and cell body. From the captured confocal images of these neuromast hair cells, unadjusted 1 micron middle section images of 4 mature hair bundles from ML1 neuromast per larvae were considered for the YFP intensity quantification in unadjusted ROI covering the middle section of each hair bundles using the imageJ software. […] The hair bundle trafficked amount of hCLRN1^N48K protein corresponds to the change in YFP intensity in the hair bundle in the ART treated larvae. Quantification of YFP fluorescence intensity was carried out as described in the previous experiment for unconventional trafficking of hCLRN1^N48K-YFP by hGRASP55 cargos. Student's t-test was used to confirm the observed changes in the YFP intensity in the hair bundles of ART treatment compared to untreated and TG treated hCLRN1^N48K-YFP; clrn1^+/+ larvae, is significant (FIG. 4J).

C/C=C(/C)C(=O)O[C@H]1C(C)=C2[C@H]([C@@H]1OC(=O)CCCCCCC)[C@@](C)(OC(C)=O)C[C@H](OC(=O)CCC)[C@@]1(O)[C@H]2OC(=O)[C@@]1(C)O [TG, Thapsigargin]
Effect on pattern of localization of wild-type hCLRN1-YFP to the hair cell's bundle or plasma membrane (hCLRN1-YFP): did not affect the pattern of localization
YFP intensity in the ROI in hair bundles (Mean±SEM) (hCLRN1-YFP): 68.57±1.36
Larvae survival ([1]; TG 0.1 μM, exposure 1 h): S
Larvae survival ([1]; TG 0.1 μM, exposure 2 h): S
Larvae survival ([1]; TG 0.1 μM, exposure 3 h): S
Larvae survival ([1]; TG 0.1 μM, exposure 4 h): S
Larvae survival ([1]; TG 0.1 μM, exposure 8 h): S
Larvae survival ([1]; TG 0.1 μM, exposure 16 h): S
Larvae survival ([1]; TG 0.5 μM, exposure 1 h): S
Larvae survival ([1]; TG 0.5 μM, exposure 2 h): S
Larvae survival ([1]; TG 0.5 μM, exposure 3 h): S
Larvae survival ([1]; TG 0.5 μM, exposure 4 h): S
Larvae survival ([1]; TG 0.5 μM, exposure 8 h): S
Larvae survival ([1]; TG 0.5 μM, exposure 16 h): L
Larvae survival ([1]; TG 1.0 μM, exposure 1 h): S
Larvae survival ([1]; TG 1.0 μM, exposure 2 h): S
Larvae survival ([1]; TG 1.0 μM, exposure 3 h): S
Larvae survival ([1]; TG 1.0 μM, exposure 4 h): S
Larvae survival ([1]; TG 1.0 μM, exposure 8 h): L
Larvae survival ([1]; TG 1.0 μM, exposure 16 h): L
Larvae survival ([1]; TG 2.5 μM, exposure 1 h): L
Larvae survival ([1]; TG 2.5 μM, exposure 2 h): L
Larvae survival ([1]; TG 2.5 μM, exposure 3 h): L
Larvae survival ([1]; TG 2.5 μM, exposure 4 h): L
Larvae survival ([1]; TG 2.5 μM, exposure 8 h): L
Larvae survival ([1]; TG 2.5 μM, exposure 16 h): L
Larvae survival ([1]; TG 5.0 μM, exposure 1 h): L
Larvae survival ([1]; TG 5.0 μM, exposure 2 h): L
Larvae survival ([1]; TG 5.0 μM, exposure 3 h): L
Larvae survival ([1]; TG 5.0 μM, exposure 4 h): L
Larvae survival ([1]; TG 5.0 μM, exposure 8 h): L
Larvae survival ([1]; TG 5.0 μM, exposure 16 h): L

C[C@@H]1CC[C@H]2[C@@H](C)C(=O)O[C@@H]3O[C@@]4(C)CC[C@@H]1[C@]32OO4 [ART, Artemisinin]
Effect on pattern of localization of wild-type hCLRN1-YFP to the hair cell's bundle or plasma membrane (hCLRN1-YFP): did not affect the pattern of localization
YFP intensity in the ROI in hair bundles (Mean±SEM) (hCLRN1-YFP): 71.32±2.05
Larvae survival ([1]; ART 0.4 μM, exposure 8 h): L
Larvae survival ([1]; ART 0.4 μM, exposure 10 h): L
Larvae survival ([1]; ART 0.5 μM, exposure 1 h): L
Larvae survival ([1]; ART 0.5 μM, exposure 2 h): L
Larvae survival ([1]; ART 0.5 μM, exposure 4 h): L
Larvae survival ([1]; ART 0.5 μM, exposure 6 h): L
Larvae survival ([1]; ART 0.5 μM, exposure 8 h): L
Larvae survival ([1]; ART 0.5 μM, exposure 10 h): L
Larvae survival ([1]; ART 1.0 μM, exposure 1 h): L
Larvae survival ([1]; ART 1.0 μM, exposure 2 h): L
Larvae survival ([1]; ART 1.0 μM, exposure 4 h): L
Larvae survival ([1]; ART 1.0 μM, exposure 6 h): L
Larvae survival ([1]; ART 1.0 μM, exposure 8 h): L
Larvae survival ([1]; ART 1.0 μM, exposure 10 h): L
